Laboratory results as given in patent publication US20030176314A1, “Compounds for the treatment of pain” (priority 2001, published 2003).

Columns and labels:
[1] = target: T1, human α1B adrenergic receptor (Homo sapiens, UniProt P35368); assay: Binding at human α1B adrenergic receptor; settings: Table 8; read-out: hα1B Ki
T1 construct: host or cells: LM(tk-) cells, line L-α1B
T1 sequence (P35368 1-520): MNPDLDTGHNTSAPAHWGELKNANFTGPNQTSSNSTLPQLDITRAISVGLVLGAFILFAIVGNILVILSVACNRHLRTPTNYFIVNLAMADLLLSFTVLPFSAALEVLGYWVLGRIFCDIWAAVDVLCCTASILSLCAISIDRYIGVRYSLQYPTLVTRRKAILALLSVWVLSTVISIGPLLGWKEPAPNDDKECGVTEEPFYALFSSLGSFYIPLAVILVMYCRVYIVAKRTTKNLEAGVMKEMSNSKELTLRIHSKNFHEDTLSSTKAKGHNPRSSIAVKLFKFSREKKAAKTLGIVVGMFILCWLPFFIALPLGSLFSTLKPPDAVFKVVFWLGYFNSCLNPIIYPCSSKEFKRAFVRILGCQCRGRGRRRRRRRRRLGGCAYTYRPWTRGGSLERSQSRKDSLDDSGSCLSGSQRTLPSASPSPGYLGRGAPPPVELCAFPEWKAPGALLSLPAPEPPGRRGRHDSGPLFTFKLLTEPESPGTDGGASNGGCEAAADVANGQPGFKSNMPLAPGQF
Text: (§1) α1 Human Adrenergic Receptors: To determine the binding of compounds to human α1 receptors, LM(tk−) cell lines stably transfected with the genes encoding the α1a, α1b, and α1d receptors were used. The nomenclature describing the α1 receptors was changed recently, such that the receptor formerly designated α1a is now designated α1d, and the receptor formerly designated α1c is now designated α1a. The cell lines expressing these receptors were deposited with the ATCC before the nomenclature change and reflect the subtype designations formerly assigned to these receptors. Thus, the cell line expressing the receptor described herein as the α1a receptor was deposited with the ATCC on Sep. […] The cell line expressing receptor described herein as the α1d receptor was deposited with the ATCC on Sep. […] The cell line expressing the α1b receptor is designated L-α1B, and was deposited on Sep.
(§2) The binding affinity (Ki) of these compounds were tested according to the protocols described herein at the following receptors; human α1A, α1B, α1D, α2A, α2B, and α2C adrenergic receptors; human Y1, Y2, Y4, and Y5 receptors; and N-Methyl-D-aspartic acid (NMDA) receptor channels. The binding interactions of these compounds were additionally tested at the norepinephrine (NE) transporter (NE uptake) and serotonin (5-hydroxytryptamine (5HT)) transporter (5HT uptake) according to protocols described herein

[2] = target: T2, human α1D adrenergic receptor (Homo sapiens, UniProt P25100); assay: Binding at human α1D adrenergic receptor; settings: Table 8; read-out: hα1D Ki
T2 construct: host or cells: LM(tk-) cells, line L-α1A
T2 sequence (P25100 1-572): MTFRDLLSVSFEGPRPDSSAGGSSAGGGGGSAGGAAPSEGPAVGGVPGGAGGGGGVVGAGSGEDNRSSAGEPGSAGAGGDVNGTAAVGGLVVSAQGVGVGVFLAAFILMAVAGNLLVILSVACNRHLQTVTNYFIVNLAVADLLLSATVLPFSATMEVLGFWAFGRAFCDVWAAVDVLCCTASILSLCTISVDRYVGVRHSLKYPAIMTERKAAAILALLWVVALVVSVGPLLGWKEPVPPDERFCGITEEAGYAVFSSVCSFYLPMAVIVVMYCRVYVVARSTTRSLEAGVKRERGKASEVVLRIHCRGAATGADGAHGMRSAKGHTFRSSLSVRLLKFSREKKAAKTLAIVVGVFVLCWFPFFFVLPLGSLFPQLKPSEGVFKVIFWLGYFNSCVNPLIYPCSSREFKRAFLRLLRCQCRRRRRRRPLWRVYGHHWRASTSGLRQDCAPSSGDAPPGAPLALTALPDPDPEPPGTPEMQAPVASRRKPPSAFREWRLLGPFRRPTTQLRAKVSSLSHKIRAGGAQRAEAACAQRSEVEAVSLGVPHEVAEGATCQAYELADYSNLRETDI
Text: as §1, §2

[3] = target: T3, human α2A adrenergic receptor (Homo sapiens, UniProt P08913); assay: Binding at human α2A adrenergic receptor; settings: Table 8; read-out: hα2A Ki
T3 construct: host or cells: LM(tk-) cells, line L-α2A
T3 sequence (P08913 1-465): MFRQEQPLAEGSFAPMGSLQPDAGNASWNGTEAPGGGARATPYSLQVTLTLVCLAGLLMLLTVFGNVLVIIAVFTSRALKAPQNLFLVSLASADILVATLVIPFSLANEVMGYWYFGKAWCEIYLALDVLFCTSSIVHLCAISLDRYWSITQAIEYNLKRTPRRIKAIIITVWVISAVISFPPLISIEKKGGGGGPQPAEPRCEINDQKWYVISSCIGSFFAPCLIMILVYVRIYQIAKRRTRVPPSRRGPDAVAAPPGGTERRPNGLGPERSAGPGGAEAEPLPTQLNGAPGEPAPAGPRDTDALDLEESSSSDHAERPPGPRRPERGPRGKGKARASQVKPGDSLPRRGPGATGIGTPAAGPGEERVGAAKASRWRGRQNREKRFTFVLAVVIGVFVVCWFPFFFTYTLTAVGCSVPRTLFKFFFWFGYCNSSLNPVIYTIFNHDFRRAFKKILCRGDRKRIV
Text: α2 Human Adrenergic Receptors: To determine the binding of compounds to human α2 receptors, LM(tk−) cell lines stably transfected with the genes encoding the α2A, α2B, and α2C receptors were used. The cell line expressing the α2A receptor is designated L-α2A, and was deposited on Nov. 6, 1992, under ATCC Accession No. CRL 11180. The cell line expressing the α2B receptor is designated L-NGC-α2B, and was deposited on Oct. 25, 1989, under ATCC Accession No. CRL 10275. The cell line expressing the α2C receptor is designated L-α2C, and was deposited on Nov. 6, 1992, under ATCC Accession No. CRL-11181. Cell lysates were prepared as described herin, and suspended in 25 mM glycyiglycine buffer (pH 7.6 at room temperature). Equilibrium competition binding assay were performed using […] (0.5 nM), and nonspecific binding was determined by incubation with 10 μM phentolamine. The bound radioligand was separated by filtration through GF/B filters using a cell harvester.
as §2

| Ki [3] [µM] | SMILES | Ki [1] [µM] | Ki [2] [µM] |
| --- | --- | --- | --- |
|  | Cc1nc(NC(=N)N)nc2ccc3ccccc3c12 [Compound 1007A] | 3.04 | 8.58 |
| 0.199 | Cc1cc(NC(=N)N)nc2ccc(Cl)cc12 [Compound 4005A, N-(6-chloro-4-methyl-2-quinolinyl)guanidine] |  |  |
